One assay relates to patients with ALS. As to conditions: cited from earlier work.
Assay [1] has as its system SMN levels in SOD1-ALS iPS cell and TDP43-47A iPS cell line. To be noted: dose dependent; SOD1-ALS and TDP43-47A iPSC-derived ALS models; cited from earlier work.
Assay [2] concerns full length SMN2 minigene mRNA (HEK293H cell line stably transfected with SMN2-A minigene). The assay can be described thus: SMN2 minigene mRNA splicing RT-qPCR assay in cultured cells. In kind it is cell-based. As to conditions: HEK293-H, concentration raising full length SMN2 minigene mRNA 1.5-fold vs vehicle, 24 hours, 7-point curve, read-out: EC1.5x minigene. From the text:
The term “EC1.5× concentration for production of full length SMN2 minigene mRNA” (or “EC1.5× minigene”) is defined as that concentration of test compound that is effective in increasing the amount of full length SMN2 minigene mRNA to a level 1.5-fold greater relative to that in vehicle-treated cells.
The reverse transcription-quantitative PCR-based (RT-qPCR) assay is used to quantify the level of the full length SMN2 minigene (referred to herein by the term “FL SMN2mini”) mRNA containing SMN2 exon 7 in a HEK293H cell line stably transfected with said minigene and treated with a test compound. Materials used and respective sources are listed below in Table 1.
The SMN2-A minigene construct was prepared as described in International Patent Application WO2009/151546A1 page 145 paragraph [00400] to page 147 paragraph [00412](incl. FIG. 1 and FIG. 3 therein).
HEK293H cells stably transfected with the SMN2-A minigene construct (10,000 cells/well) are seeded in 200 μL of cell culture medium (DMEM plus 10% FBS, with 200 μg/mL hygromycin) in 96-well flat-bottom plates and the plate is immediately swirled to ensure proper dispersal of cells and the formation of an even monolayer of cells. Cells are allowed to attach for 6 hours. Test compounds are serially diluted 3.16-fold in 100% DMSO to generate a 7-point concentration curve. […]
Full length SMN2-A minigene and GAPDH mRNA are quantified using the primers and probes referenced in WO2014/209841A2 on page 80 in Table 1. […]
The increase in the abundance of the FL SMN2mini mRNA relative to that in cells treated with vehicle control is determined from real-time PCR data using a modified […] method (as described in Livak and Schmittgen, Methods, 2001, 25:402-8). The amplification efficiency E is calculated from the slope of the amplification curve for FL SMN2mini and GAPDH individually. The abundance of FL SMN2mini and GAPDH mRNA are then calculated as (1+E)^−Ct, where Ct is the threshold value for each amplicon. […]

The text below walks through data of patent US20180289713A1, “COMPOUNDS FOR TREATING AMYOTROPHIC LATERAL SCLEROSIS” (Hoffmann-La Roche Inc., priority 2015, published 2018).

Molecules are shown by their SMILES.

In the case of `Nc1nc2ccc(OC(F)(F)F)cc2s1` [Riluzole], the “improvement of muscular strength” value in the assay on patients with ALS (ALS patients, some reports) is “does not appear to provide any improvement of muscular strength”. In addition, the extension of life entry in the assay with patients with ALS (at least some patients with ALS) is reported as “three”. Take `CCN1CCC(c2cc(C)c3nc(-c4cc5c(C)nc(C)cn5n4)cc(=O)n3c2)CC1` [SMN-C3]: the “increase of SMN levels” value in assay [1] is on record as “up to 1.4 fold”. Regarding `Cc1cn2nc(-c3cc(=O)n4cc(N5CCNC6(CC6)C5)ccc4n3)ccc2n1` [Example 19, 7-(4,7-diazaspiro[2.5]octan-7-yl)-2-(2-methylimidazo[1,2-b]pyridazin-6-yl)pyrido[1,2-a]pyrimidin-4-one], the EC (1.5-fold) in assay [2] was 0.0102 µM.

Consider `Cc1cn2nc(-c3cc(=O)n4cc(N5C[C@@H](C)N[C@@H](C)C5)cc(C)c4n3)cc(C)c2n1` [Example 26, 2-(2,8-dimethylimidazo[1,2-b]pyridazin-6-yl)-7-[(3R,5S)-3,5-dimethylpiperazin-1-yl]-9-methyl-pyrido[1,2-a]pyrimidin-4-one], for which the EC (1.5-fold) in assay [2] turned out to be 0.327 µM. Still for that read-out and setting: the same measure for `Cc1cn2nc(-c3cc(=O)n4cc(N5CCNC(C)(C)C5)cc(C)c4n3)cc(C)c2n1` [Example 27, 2-(2,8-dimethylimidazo[1,2-b]pyridazin-6-yl)-7-(3,3-dimethylpiperazin-1-yl)-9-methyl-pyrido[1,2-a]pyrimidin-4-one]: 0.0399 µM.
